Read-outs that look alike come from different tables or passages of the source.
Key:
L. major [1] = experiment: ChEMBL dataset of pIC50 values against L. major used for the RF model (Table S1); format: cell-based, Leishmania major; further: call rule not given here
L. major [2] = test system: L. major; parameters: method as in ChEMBL; settings: ref ChEMBL, cited from earlier work
[3] = Active/Inactive class assigned to the ChEMBL pIC50 value for Random forest model construction, ref ChEMBL
[4] = ChemBL structures with pIC50 values used for Random forest model construction, L. major
[5] = Active/Inactive class assigned to ChemBL structures for Random forest model construction (Table S1)
[6] = ChemBL structures with pIC50 values used for Random forest model construction (Table S1)

CC1=N[C@H](C)Cc2c(-c3cccc4ccccc34)ccc(O)c21 [CHEMBL1276916]
Outcome (L. major [1]; [3]): Inactive | pIC50 Value (L. major [2]; [4]): 4.87

COc1ccc(-c2ccc3ccccc3c2)c2c1C(C)=N[C@H](C)C2 [CHEMBL1276917]
Outcome (L. major [1]; [3]): Inactive | pIC50 Value (L. major [2]; [4]): 4.55

CC1=N[C@H](C)Cc2c(-c3ccc4ccccc4c3)ccc(O)c21 [CHEMBL1276918]
Outcome (L. major [1]; [3]): Inactive | pIC50 Value (L. major [2]; [4]): 4.46

COc1ccc(-c2ccc(OC)c3ccccc23)c2c1C=NC(C)(C)C2 [CHEMBL1277742]
Outcome (L. major [1]; [3]): Inactive | pIC50 Value (L. major [2]; [4]): 4.43

COc1ccc(-c2ccc(OC)c3ccccc23)c2c1C=NCC2 [CHEMBL1277828]
Outcome (L. major [1]; [3]): Inactive | pIC50 Value (L. major [2]; [4]): 4.33

COc1cccc2c(-c3ccc(O)c4c3CC(C)(C)N=C4)ccc(O)c12 [CHEMBL1277993]
Outcome (L. major [1]; [3]): Inactive | pIC50 Value (L. major [2]; [4]): 4.00

COc1ccc(-c2ccc(C)cc2)c2c1C(C)=N[C@H](C)C2 [CHEMBL1278083]
Outcome (L. major [1]; [3]): Inactive | pIC50 Value (L. major [2]; [4]): 4.08

COc1ccc(-c2ccc(C(F)(F)F)cc2)c2c1C(C)=N[C@H](C)C2 [CHEMBL1278172]
Outcome (L. major [1]; [3]): Inactive | pIC50 Value (L. major [2]; [4]): 4.00

O=C(CCl)N1c2ccccc2CCc2ccccc21 [CHEMBL1314125]
Outcome (L. major [1]; [3]): Inactive | pIC50 Value (L. major [2]; [4]): 4.36

COc1cc(C2NC(=O)NC(C)=C2C(C)=O)ccc1O (centres unmarked) [CHEMBL1342564]
Outcome (L. major [1]; [5]): Active | pIC50 Value (L. major [2]; [6]): 5.59

COc1ccc(C2NC(=O)NC(C)=C2C(C)=O)cc1 (centres unmarked) [CHEMBL1369396]
Outcome (L. major [1]; [5]): Active | pIC50 Value (L. major [2]; [6]): 5.58

O=[N+]([O-])c1ccc2nc(-c3ccc(Cl)cc3)[nH]c2c1 [CHEMBL1407741]
Outcome (L. major [1]; [5]): Active | pIC50 Value (L. major [2]; [6]): 5.63

Cc1ccc(-c2nc3ccc([N+](=O)[O-])cc3[nH]2)cc1 [CHEMBL1446966]
Outcome (L. major [1]; [5]): Active | pIC50 Value (L. major [2]; [6]): 5.46

O=[N+]([O-])c1ccc2nc(-c3ccccc3[N+](=O)[O-])[nH]c2c1 [CHEMBL1481977]
Outcome (L. major [1]; [5]): Active | pIC50 Value (L. major [2]; [6]): 5.59

O=[N+]([O-])c1ccc(-c2nc3ccc([N+](=O)[O-])cc3[nH]2)cc1 [CHEMBL1483847]
Outcome (L. major [1]; [5]): Active | pIC50 Value (L. major [2]; [6]): 5.58

CC(=O)C1=C(C)NC(=O)NC1c1ccccc1 (centres unmarked) [CHEMBL1496818]
Outcome (L. major [1]; [5]): Active | pIC50 Value (L. major [2]; [6]): 5.58

COc1cccc2c1C(=O)C=C(C)C2=O [CHEMBL1531003]
Outcome (L. major [1]; [5]): Active | pIC50 Value (L. major [2]; [6]): 5.48

COc1ccc(-c2nc3ccc([N+](=O)[O-])cc3[nH]2)cc1 [CHEMBL1535921]
Outcome (L. major [1]; [5]): Active | pIC50 Value (L. major [2]; [6]): 5.50

O=[N+]([O-])c1cccc(-c2nc3ccc([N+](=O)[O-])cc3[nH]2)c1 [CHEMBL1563210]
Outcome (L. major [1]; [5]): Active | pIC50 Value (L. major [2]; [6]): 5.56

CCN1CSC(=S)N(CC)C1 [CHEMBL1571763]
Outcome (L. major [1]; [3]): Inactive | pIC50 Value (L. major [2]; [4]): 4.42

Fc1ccc(-c2nc3ccccc3[nH]2)cc1 [CHEMBL1596095]
Outcome (L. major [1]; [5]): Active | pIC50 Value (L. major [2]; [6]): 5.43

O=C(CCl)N(c1ccccc1)c1ccccc1 [CHEMBL1603760]
Outcome (L. major [1]; [3]): Inactive | pIC50 Value (L. major [2]; [4]): 4.39

COc1ccccc1NC(=O)CCC(=O)O [CHEMBL1605594]
Outcome (L. major [1]; [5]): Active | pIC50 Value (L. major [2]; [6]): 7.81

O=C(CCl)N1c2ccccc2Sc2ccccc21 [CHEMBL1651446]
Outcome (L. major [1]; [3]): Active | pIC50 Value (L. major [2]; [4]): 5.03

O=C(CCl)n1c2ccccc2c2ccccc21 [CHEMBL1651449]
Outcome (L. major [1]; [3]): Inactive | pIC50 Value (L. major [2]; [4]): 4.00

c1ccc(-c2nc3ccccn3c2-c2ccccc2)cc1 [CHEMBL1719415]
Outcome (L. major [1]; [3]): Inactive | pIC50 Value (L. major [2]; [4]): 4.65

N#Cc1ccc(N2CCN(c3nnc(-c4ccc([N+](=O)[O-])o4)s3)CC2)cc1 [CHEMBL1783198]
Outcome (L. major [1]; [3]): Inactive | pIC50 Value (L. major [2]; [4]): 3.98

CCOC(=N)c1ccc(N2CCN(c3nnc(-c4ccc([N+](=O)[O-])o4)s3)CC2)cc1.Cl [CHEMBL1783199]
Outcome (L. major [1]; [3]): Inactive | pIC50 Value (L. major [2]; [4]): 4.32

Cl.N=C(N)c1ccc(N2CCN(c3nnc(-c4ccc([N+](=O)[O-])o4)s3)CC2)cc1 [CHEMBL1783200]
Outcome (L. major [1]; [3]): Inactive | pIC50 Value (L. major [2]; [4]): 3.95

CNC(=N)c1ccc(N2CCN(c3nnc(-c4ccc([N+](=O)[O-])o4)s3)CC2)cc1.Cl [CHEMBL1783201]
Outcome (L. major [1]; [3]): Inactive | pIC50 Value (L. major [2]; [4]): 4.64

CCNC(=N)c1ccc(N2CCN(c3nnc(-c4ccc([N+](=O)[O-])o4)s3)CC2)cc1.Cl [CHEMBL1783202]
Outcome (L. major [1]; [3]): Inactive | pIC50 Value (L. major [2]; [4]): 4.48

CCCNC(=N)c1ccc(N2CCN(c3nnc(-c4ccc([N+](=O)[O-])o4)s3)CC2)cc1.Cl [CHEMBL1783203]
Outcome (L. major [1]; [3]): Active | pIC50 Value (L. major [2]; [4]): 5.00

CCCCNC(=N)c1ccc(N2CCN(c3nnc(-c4ccc([N+](=O)[O-])o4)s3)CC2)cc1.Cl [CHEMBL1783204]
Outcome (L. major [1]; [3]): Inactive | pIC50 Value (L. major [2]; [4]): 4.96

CCC(C)NC(=N)c1ccc(N2CCN(c3nnc(-c4ccc([N+](=O)[O-])o4)s3)CC2)cc1.Cl (centres unmarked) [CHEMBL1783205]
Outcome (L. major [1]; [3]): Inactive | pIC50 Value (L. major [2]; [4]): 4.48

Cl.N=C(NCc1ccccc1)c1ccc(N2CCN(c3nnc(-c4ccc([N+](=O)[O-])o4)s3)CC2)cc1 [CHEMBL1783206]
Outcome (L. major [1]; [3]): Active | pIC50 Value (L. major [2]; [4]): 5.05

COc1ccc(CNC(=N)c2ccc(N3CCN(c4nnc(-c5ccc([N+](=O)[O-])o5)s4)CC3)cc2)cc1.Cl [CHEMBL1783207]
Outcome (L. major [1]; [3]): Inactive | pIC50 Value (L. major [2]; [4]): 4.10

Cl.N=C(NCC1CCCO1)c1ccc(N2CCN(c3nnc(-c4ccc([N+](=O)[O-])o4)s3)CC2)cc1 (centres unmarked) [CHEMBL1783208]
Outcome (L. major [1]; [3]): Inactive | pIC50 Value (L. major [2]; [4]): 4.02

Cl.N=C(c1ccc(N2CCN(c3nnc(-c4ccc([N+](=O)[O-])o4)s3)CC2)cc1)N1CCOCC1 [CHEMBL1783209]
Outcome (L. major [1]; [3]): Inactive | pIC50 Value (L. major [2]; [4]): 4.03

Cl.O=[N+]([O-])c1ccc(-c2nnc(N3CCN(c4ccc(C5=NCCN5)cc4)CC3)s2)o1 [CHEMBL1783210]
Outcome (L. major [1]; [3]): Inactive | pIC50 Value (L. major [2]; [4]): 3.70

Cl.O=[N+]([O-])c1ccc(-c2nnc(N3CCN(c4ccc(C5=NCCCN5)cc4)CC3)s2)o1 [CHEMBL1783211]
Outcome (L. major [1]; [3]): Inactive | pIC50 Value (L. major [2]; [4]): 3.70

Clc1ccc2c(c1)Nc1ccccc1O2 [CHEMBL1801896]
Outcome (L. major [1]; [3]): Inactive | pIC50 Value (L. major [2]; [4]): 4.16

Cc1ccc2cc(/C=C/C(=O)c3ccsc3)c(Cl)nc2c1 [CHEMBL1940850]
Outcome (L. major [1]; [5]): Active | pIC50 Value (L. major [2]; [6]): 5.55

Cc1ccc2cc(/C=C/C(=O)c3sccc3C)c(Cl)nc2c1 [CHEMBL1940851]
Outcome (L. major [1]; [5]): Active | pIC50 Value (L. major [2]; [6]): 5.55

Cc1csc(C(=O)/C=C/c2cc3ccc(C)cc3nc2Cl)c1 [CHEMBL1940852]
Outcome (L. major [1]; [5]): Active | pIC50 Value (L. major [2]; [6]): 5.60

Cc1ccc2cc(/C=C/C(=O)c3ccc(C)s3)c(Cl)nc2c1 [CHEMBL1940853]
Outcome (L. major [1]; [5]): Active | pIC50 Value (L. major [2]; [6]): 5.65

Cc1ccc2cc(/C=C/C(=O)c3cc(C)sc3C)c(Cl)nc2c1 [CHEMBL1940854]
Outcome (L. major [1]; [5]): Active | pIC50 Value (L. major [2]; [6]): 5.74

Cc1ccc2cc(/C=C/C(=O)c3sccc3Cl)c(Cl)nc2c1 [CHEMBL1940855]
Outcome (L. major [1]; [5]): Active | pIC50 Value (L. major [2]; [6]): 5.77

Cc1ccc2cc(/C=C/C(=O)c3ccc(Cl)s3)c(Cl)nc2c1 [CHEMBL1940856]
Outcome (L. major [1]; [5]): Active | pIC50 Value (L. major [2]; [6]): 5.63

Cc1ccc2cc(/C=C/C(=O)c3cc(Cl)sc3Cl)c(Cl)nc2c1 [CHEMBL1940857]
Outcome (L. major [1]; [5]): Active | pIC50 Value (L. major [2]; [6]): 5.69

Cc1ccc2cc(/C=C/C(=O)c3sccc3Br)c(Cl)nc2c1 [CHEMBL1940858]
Outcome (L. major [1]; [5]): Active | pIC50 Value (L. major [2]; [6]): 5.74

Cc1ccc2cc(/C=C/C(=O)c3ccc(Br)s3)c(Cl)nc2c1 [CHEMBL1940859]
Outcome (L. major [1]; [5]): Active | pIC50 Value (L. major [2]; [6]): 5.64

Cc1ccc2cc(/C=C/C(=O)c3ccc(I)s3)c(Cl)nc2c1 [CHEMBL1940860]
Outcome (L. major [1]; [5]): Active | pIC50 Value (L. major [2]; [6]): 5.72

Cc1cccc2cc(/C=C/C(=O)c3ccsc3)c(Cl)nc12 [CHEMBL1940861]
Outcome (L. major [1]; [5]): Active | pIC50 Value (L. major [2]; [6]): 5.71

Cc1ccsc1C(=O)/C=C/c1cc2cccc(C)c2nc1Cl [CHEMBL1940862]
Outcome (L. major [1]; [5]): Active | pIC50 Value (L. major [2]; [6]): 5.54

Cc1csc(C(=O)/C=C/c2cc3cccc(C)c3nc2Cl)c1 [CHEMBL1940863]
Outcome (L. major [1]; [5]): Active | pIC50 Value (L. major [2]; [6]): 5.74

Reference: publication PMC8196580, “Identification of Kaurane-Type Diterpenes as Inhibitors of Leishmania Pteridine Reductase I” (Molecules, 2021)
